These are literature values, as cited in patent publication US6689382B2, “Soft shell gelatin capsules containing non-steroidal anti-inflammatories” (priority 2002, dated 2004).

The conditions of series [1]: clinical trials.
The test system of series [2] is COX-2 and COX-1. The settings on record: for selectivity for COX-1 and COX-2 (in words): conventional 1st generation NSAIDs; for ratio COX-2 IC50 divided by COX-1 IC50: in vitro, the smaller the ratio the more selective for COX-2.

In the case of `Cc1ccc(-c2cc(C(F)(F)F)nn2-c2ccc(S(N)(=O)=O)cc2)cc1` [celecoxib, Celecoxib], the anti-inflammatory activity result in series [1] is listed as “effective anti-inflammatory activity”. The gastrointestinal adverse effects result in series [1] (compared to placebo) is “virtually no gastrointestinal adverse effects”. Take `CC(C)Cc1ccc(C(C)C(=O)O)cc1` (stereo not shown) [ibuprofen]: the “selectivity for COX-1 and COX-2 (in words)” value (shortened to “selectivity”) in series [2] is listed as “essentially non-selective”. For the compound `COc1ccc2c(c1)c(CC(=O)O)c(C)n2C(=O)c1ccc(Cl)cc1` [indomethacin], in series [2], the “ratio COX-2 IC50 divided by COX-1 IC50” value is “about 30”. In the case of `CC(C(=O)O)c1cccc(C(=O)c2ccccc2)c1` (stereo not shown) [ketoprofen], the “selectivity” value in series [2] is given as “relatively COX-1 selective”.

For `COc1ccc2cc([C@H](C)C(=O)O)ccc2c1` [naproxen], in series [2], the “selectivity” value was “essentially non-selective”. As for `CN1C(C(=O)Nc2ccccn2)=C(O)c2ccccc2S1(=O)=O` [piroxicam], the “ratio COX-2 IC50 divided by COX-1 IC50” value in series [2] was “about 30”.
